# Like-named read-outs stand apart in the source and are kept apart here.
# Assays:
# S. aureus UC 80 = test: standard disc plate assay, zones of inhibition; type: cell-based; conditions: Staphylococcus aureus, 12.5 mm paper discs; for zone of inhibition at 100 µg/mL: UC80, read-out: Zones of Inhibition, 0.1 mg/ml; for zone of inhibition at 1000 µg/mL: UC80, read-out: Zones of Inhibition, 1 mg/ml
# In short: (§1)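 Disc plate method, 12.5 mm paper discs; read-out = inhibition zone around disc.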
# P. vulgaris UC 93 = test: standard disc plate assay, zones of inhibition; type: cell-based; conditions: Proteus vulgaris, 12.5 mm paper discs; for zone of inhibition at 100 µg/mL: UC93, read-out: Zones of Inhibition, 0.1 mg/ml; for zone of inhibition at 1000 µg/mL: UC93, read-out: Zones of Inhibition, 1 mg/ml
# In short: as §1
compound,measurement,setting,value
NC[C@H]1O[C@H](O[C@H]2[C@H](O)[C@@H](O)[C@H](N)C[C@@H]2N)[C@H](N)[C@@H](O)[C@@H]1O [Neamine],zone of inhibition at 100 µg/mL,S. aureus UC 80; Table I,20 mm
same,zone of inhibition at 100 µg/mL,S. aureus UC 80; Table II,18 mm
same,zone of inhibition at 1000 µg/mL,S. aureus UC 80; Table I,29 mm
same,zone of inhibition at 1000 µg/mL,S. aureus UC 80; Table II,26 mm
same,zone of inhibition at 100 µg/mL,P. vulgaris UC 93; Table I,18 mm
same,zone of inhibition at 100 µg/mL,P. vulgaris UC 93; Table II,15 mm
same,zone of inhibition at 1000 µg/mL,P. vulgaris UC 93; Table I,27 mm
same,zone of inhibition at 1000 µg/mL,P. vulgaris UC 93; Table II,28 mm
